Assay results taken from patent US12201610B2, “Compositions comprising aticaprant” (Janssen Pharmaceuticals, Inc., priority 2022, dated 2025).

Tested on: subjects with MDD
Experiment: MADRS total score, adjunctive aticaprant vs placebo in MDD (Example 6)
[1] = eITT Analysis Set, High anhedonia, Treatment Week 1
[2] = eITT Analysis Set, High anhedonia, Treatment Week 3
[3] = eITT Analysis Set, High anhedonia, Treatment Week 4
[4] = eITT Analysis Set, High anhedonia, Treatment Week 5
[5] = eITT Analysis Set, High anhedonia, Treatment Week 6
[6] = eITT Analysis Set, Low anhedonia, Treatment Week 1
[7] = eITT Analysis Set, Low anhedonia, Treatment Week 3
[8] = eITT Analysis Set, Low anhedonia, Treatment Week 4
[9] = eITT Analysis Set, Low anhedonia, Treatment Week 5
[10] = eITT Analysis Set, Low anhedonia, Treatment Week 6
[11] = eITT, Treatment Week 1, 10 mg adjunctive to SSRI/SNRI
[12] = eITT, Treatment Week 3, 10 mg adjunctive to SSRI/SNRI
[13] = eITT, Treatment Week 4, 10 mg adjunctive to SSRI/SNRI
[14] = eITT, Treatment Week 5, 10 mg adjunctive to SSRI/SNRI
[15] = eITT, Treatment Week 6, 10 mg adjunctive to SSRI/SNRI

Cc1cc(C)cc(C2CCCN2Cc2ccc(Oc3ccc(C(N)=O)cc3F)cc2)c1 (stereo not drawn) [aticaprant, 3-fluoro-4-4-2-(3,5-dimethylphenyl)pyrrolidin-1-yl-methylphenoxybenzamide]
Change from Treatment Baseline in MADRS Total Score, Least Squares Mean (Standard Error) (Treatment Week 6, both responders and non-responders during placebo lead-in, 10 mg): −9.6 ± 0.79 score on a scale | MADRS Total Score Least Squares Mean Difference, point estimate (Treatment Week 6, both responders and non-responders during placebo lead-in, 10 mg vs placebo): −3.1 score on a scale | MADRS Total Score Effect size [1]: −0.39 | MADRS Total Score Mean Change from Baseline (SD) [1]: −4.6 (5.25) | MADRS Total Score Mean Change to Placebo (SD pooled) [1]: −1.8 (4.69) | MADRS Total Score Effect size [2]: −0.46 | MADRS Total Score Mean Change from Baseline (SD) [2]: −6.7 (6.83) | MADRS Total Score Mean Change to Placebo (SD pooled) [2]: −3.0 (6.59) | MADRS Total Score Effect size [3]: −0.30 | MADRS Total Score Mean Change from Baseline (SD) [3]: −8.5 (7.26) | MADRS Total Score Mean Change to Placebo (SD pooled) [3]: −2.2 (7.30) | MADRS Total Score Effect size [4]: −0.33 | MADRS Total Score Mean Change from Baseline (SD) [4]: −9.7 (8.18) | MADRS Total Score Mean Change to Placebo (SD pooled) [4]: −2.6 (7.93) | MADRS Total Score Effect size [5]: −0.38 | MADRS Total Score Mean Change from Baseline (SD) [5]: −11.5 (8.95) | MADRS Total Score Mean Change to Placebo (SD pooled) [5]: −3.4 (8.98) | MADRS Total Score Effect size [6]: −0.12 | MADRS Total Score Mean Change from Baseline (SD) [6]: −2.3 (5.03) | MADRS Total Score Mean Change to Placebo (SD pooled) [6]: −0.5 (4.30) | MADRS Total Score Effect size [7]: −0.01 | MADRS Total Score Mean Change from Baseline (SD) [7]: −4.9 (5.99) | MADRS Total Score Mean Change to Placebo (SD pooled) [7]: −0.1 (5.85) | MADRS Total Score Effect size [8]: 0.01 | MADRS Total Score Mean Change from Baseline (SD) [8]: −6.4 (7.40) | MADRS Total Score Mean Change to Placebo (SD pooled) [8]: 0.0 (6.80) | MADRS Total Score Effect size [9]: 0.05 | MADRS Total Score Mean Change from Baseline (SD) [9]: −7.2 (6.46) | MADRS Total Score Mean Change to Placebo (SD pooled) [9]: 0.3 (6.65) | MADRS Total Score Effect size [10]: −0.11 | MADRS Total Score Mean Change from Baseline (SD) [10]: −9.2 (8.01) | MADRS Total Score Mean Change to Placebo (SD pooled) [10]: −0.9 (8.13) | MADRS Total Score Change from Baseline LSMean (SE), MMRM [11]: −3.2 | MADRS Total Score LSMean Difference (SE) Treatment - Placebo, MMRM [11]: −1.2 (1.24) | MADRS Total Score Mean (SD) [11]: 25.4 | MADRS Total Score Mean Change from Baseline (SD) [11]: −3.3 | MADRS Total Score Mean Change to Placebo (SD pooled) [11]: −1.1 (4.52) | MADRS Total Score Mean Change from Baseline (SD) (eITT, Treatment Week 1, 10 mg adjunctive to SSRI/SNRI, listed as Aticaprant): −3.3 (5.21) | MADRS Total Score Effect size (eITT, Treatment Week 1, vs placebo, negative favors aticaprant): −0.24 | MADRS Total Score Change from Baseline LSMean (SE), MMRM [12]: −5.6 | MADRS Total Score LSMean Difference (SE) Treatment - Placebo, MMRM [12]: −1.5 (1.25) | MADRS Total Score Mean (SD) [12]: 23.1 | MADRS Total Score Mean Change from Baseline (SD) [12]: −5.7 | MADRS Total Score Mean Change to Placebo (SD pooled) [12]: −1.4 (6.18) | MADRS Total Score Mean Change from Baseline (SD) (eITT, Treatment Week 3, 10 mg adjunctive to SSRI/SNRI, listed as Aticaprant): −5.7 (6.38) | MADRS Total Score Effect size (eITT, Treatment Week 3, vs placebo, negative favors aticaprant): −0.22 | MADRS Total Score Change from Baseline LSMean (SE), MMRM [13]: −7.3 | MADRS Total Score LSMean Difference (SE) Treatment - Placebo, MMRM [13]: −1.1 (1.25) | MADRS Total Score Mean (SD) [13]: 21.5 | MADRS Total Score Mean Change from Baseline (SD) [13]: −7.3 | MADRS Total Score Mean Change to Placebo (SD pooled) [13]: −0.9 (7.00) | MADRS Total Score Mean Change from Baseline (SD) (eITT, Treatment Week 4, 10 mg adjunctive to SSRI/SNRI, listed as Aticaprant): −7.3 (7.35) | MADRS Total Score Effect size (eITT, Treatment Week 4, vs placebo, negative favors aticaprant): −0.14 | MADRS Total Score Change from Baseline LSMean (SE), MMRM [14]: −8.7 | MADRS Total Score LSMean Difference (SE) Treatment - Placebo, MMRM [14]: −1.5 (1.25) | MADRS Total Score Mean (SD) [14]: 20.5 | MADRS Total Score Mean Change from Baseline (SD) [14]: −8.4 | MADRS Total Score Mean Change to Placebo (SD pooled) [14]: −1.1 (7.25) | MADRS Total Score Mean Change from Baseline (SD) (eITT, Treatment Week 5, 10 mg adjunctive to SSRI/SNRI, listed as Aticaprant): −8.4 (7.36) | MADRS Total Score Effect size (eITT, Treatment Week 5, vs placebo, negative favors aticaprant): −0.14 | percentage of subjects with MADRS remission (MADRS total score ≤10) (eITT, Treatment Week 6): 16.9% | percentage of subjects with ≥30% improvement in MADRS total score (eITT, Treatment Week 6): 57.6% | percentage of subjects with ≥50% improvement in MADRS total score (eITT, Treatment Week 6): 35.6% | MADRS Total Score Change from Baseline LSMean (SE), MMRM [15]: −10.1 | MADRS Total Score Mean (SD) [15]: 18.6 | MADRS Total Score Mean Change from Baseline (SD) [15]: −10.2 (8.44)
